The values below come from article PMC10084752, “Heterologous Expression of the Hot Pepper ABA 8’-Hydroxylase in Escherichia coli for Phaseic Acid Production” (Journal of Microbiology and Biotechnology, 2023).

The assay concerns the target T1, CaCYP707A2 (Capsicum annuum, UniProt X2C029).
T1 construct: gene CYP707A70; full-length, no N-terminal modification; pCW ori(+) in E. coli Rosetta (DE3) pLysS; 54 kDa
T1 sequence (X2C029 1-477): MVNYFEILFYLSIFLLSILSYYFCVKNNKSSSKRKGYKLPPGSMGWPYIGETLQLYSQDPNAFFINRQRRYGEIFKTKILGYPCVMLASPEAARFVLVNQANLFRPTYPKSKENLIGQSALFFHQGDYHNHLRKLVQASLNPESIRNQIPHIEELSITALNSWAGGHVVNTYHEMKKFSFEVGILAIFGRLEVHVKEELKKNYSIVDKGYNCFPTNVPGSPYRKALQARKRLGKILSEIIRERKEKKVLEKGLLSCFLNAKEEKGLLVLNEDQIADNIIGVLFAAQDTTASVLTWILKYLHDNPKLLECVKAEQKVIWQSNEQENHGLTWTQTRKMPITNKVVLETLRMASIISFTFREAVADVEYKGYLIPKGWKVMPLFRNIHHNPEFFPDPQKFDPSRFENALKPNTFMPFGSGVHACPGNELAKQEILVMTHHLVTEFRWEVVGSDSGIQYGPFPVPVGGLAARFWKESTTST
The assay can be described thus: spectral binding titration (type I UV-visible difference spectrum).

Turning to `CC1=CC(=O)CC(C)(C)C1(O)/C=C/C(C)=C\C(=O)O` (stereo in doubt) [(+)-ABA], the Kd is 5.8 ± 0.93 µM.
